Our source for the Triple point temperature values is the NIST ThermoML archive (doi:10.1016/j.tca.2004.12.012).

The conditions of the data set: Crystal 2; DTA.

± gives the expanded uncertainty stated by the source.

Take `[Br-].[Na+]` [sodium bromide]: the Triple point temperature worked out at 1114 ± 3 K.
